{"source": "paper PMC8026769", "about": "(Molecular microbiology, 2020)", "key": {"[1]": {"target": "T1, LpThi5 (LpThi5-His6; Lpg1565) (Legionella pneumophila, UniProt Q5ZV75)", "T1 sequence (Q5ZV75 whole entry, looked up)": "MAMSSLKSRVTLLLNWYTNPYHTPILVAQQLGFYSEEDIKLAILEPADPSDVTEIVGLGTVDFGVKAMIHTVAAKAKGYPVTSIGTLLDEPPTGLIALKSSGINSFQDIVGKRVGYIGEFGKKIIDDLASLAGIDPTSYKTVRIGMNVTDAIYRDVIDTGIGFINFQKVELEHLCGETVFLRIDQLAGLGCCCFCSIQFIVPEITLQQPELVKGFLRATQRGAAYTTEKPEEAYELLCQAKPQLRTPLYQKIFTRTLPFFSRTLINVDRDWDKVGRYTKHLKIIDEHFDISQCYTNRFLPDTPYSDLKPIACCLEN"}, "[2]": {"target": "T1, LpThi5 (LpThi5-His6; Lpg1565)", "remark": "listed apart in the source"}}}
{"smiles": "Cc1ncc(CO)c(N)n1", "note": "[HMP, 2-methyl-4-amino-5-hydroxymethylpyrimidine]", "values": [{"measurement": "bioassay, HPLC and MALDI-TOF MS of released product", "setting": "[1]", "value": "MALDI-TOF MS identified the active molecule as HMP"}]}
{"smiles": "Cc1ncc(COP(=O)(O)O)c(C=O)c1O", "note": "[PLP, pyridoxal-5’-phosphate]", "values": [{"measurement": "PLP occupancy", "setting": "[2]", "value": "63 ± 2", "unit": "%"}]}
